Measured values: patent publication US5990122A, “Quinolone- and naphthyridonecarboxylic acid derivatives” (Bayer Aktiengesellschaft, priority 1994, dated 1999)
In brackets after ≈: the same amount, converted by molar mass. Like-named read-outs stand apart in the source and are kept apart here.

Columns and labels:
Format in all cases: cell-based
Bac. fragilis ES 25 = test: minimum inhibitory concentration (MIC), series dilution method on Iso-Sensitest agar; details: about 20 hours
Experimental: (§1) The minimum inhibitory concentrations (MIC) were determined by a series dilution method on Iso-Sensitest agar (Oxoid). For each test substance, a series of agar plates each comprising concentrations of the active compound decreasing by double dilution in each case was prepared. The agar plates were inoculated with a multipoint inoculator (Denley). Overnight cultures of the pathogens which had been diluted beforehand such that each inoculation point comprised about 10^4 colony-forming particles were used for the inoculation. The inoculation agar plates were incubated at 37° C. and the germ growth was read off after about 20 hours. The MIC value (μg/ml) indicated the lowest active compound concentration at which no growth was detectable with the naked eye.

E. coli Neumann = test: as above; details: 37° C., about 20 hours
Experimental: as §1

Ps. aeruginosa Walter = test: as above; details: 37° C., about 20 hours
Experimental: as §1

Staph. aureus 133 = test: as above; details: 37° C., about 20 hours
Experimental: as §1

[1] = inhibition of DNA synthesis in cells from ovaries of the Chinese hamster (CHO-KI), genotoxic potential, fluorophotometric; details: hamster, cho-k1 cells, measure of the genotoxic potential, read-out: ID50 (concentration at which DNA synthesis in CHO-KI cells is inhibited by 50%)
Excerpt: (§2) The following Tables 1 and 2 show the minimum inhibitory concentrations as a measure of the antibacterial activity and the ID50 values as a measure of the genotoxic potential of a substance both for compounds according to the invention and for reference compounds from the prior art (EP 520 240). The compounds according to the invention are distinguished in particular by the fact that they have lower interactions with mammalian DNA compared with the compounds according to the prior art. The ID50 is understood as meaning the concentration of a substance at which DNA synthesis in cells from ovaries of the Chinese hamster (CHO-KI) is inhibited by 50%. This value is determined after incubation of the corresponding substances in decreasing dilution stages over defined periods of time. For this, the DNA synthesis in CHO-KI cells is determined in comparison with controls by means of fluorophotometric methods.

Staph. aureus ICB 25701 = test: minimum inhibitory concentration (MIC), series dilution method on Iso-Sensitest agar; details: about 20 hours
Experimental: as §1

CHO-KI cells = test: inhibition of DNA synthesis in cells from ovaries of the Chinese hamster (CHO-KI), genotoxic potential, fluorophotometric; details: measure of the genotoxic potential
Excerpt: as §2

[2] = Bacteroides fragilis, ES25, 37° C., read-out: MIC
[3] = Escherichia coli, read-out: MIC
[4] = Pseudomonas aeruginosa, read-out: MIC
[5] = Staphylococcus aureus, read-out: MIC
[6] = Staphylococcus aureus, ICB25701, 37° C., read-out: MIC

Row | MIC (Bac. fragilis ES 25; [2]) [µg/mL] | MIC (E. coli Neumann; [3]) [µg/mL] | MIC (Ps. aeruginosa Walter; [4]) [µg/mL] | MIC (Staph. aureus 133; [5]) [µg/mL] | MIC (Staph. aureus ICB 25701; [6]) [µg/mL] | MIC (Staph. aureus ICB 25701; 37° C.) [µg/mL] | MIC (Bac. fragilis ES 25; 37° C.) [µg/mL] | MIC (E. coli Neumann) [µg/mL] | MIC (Ps. aeruginosa Walter) [µg/mL] | MIC (Staph. aureus 133) [µg/mL] | Structure (SMILES) | IC50 [1] [µg/mL] | ID50 (concentration at which DNA synthesis in CHO-KI cells is inhibited by 50%) (CHO-KI cells) [µg/mL]
1 | 0.5 (≈ 1.12 µM) | 0.03 (≈ 0.0673 µM) | 1 (≈ 2.24 µM) | 0.015 (≈ 0.0336 µM) | – | – | – | – | – | – | CNC1C=CC(C)C2CN(c3c(F)cc4c(=O)c(C(=O)O)cn(C5CC5)c4c3Cl)CC12 (centres unmarked) [Ref. 4, 7(7-methyl-4-methylamino-1,3,3a,4,7,7a-hexahydro-isoindol-2-yl)-8-chloro- -cyclopropyl-6-fluoro-1,4-dihydro-4-oxo-3-quinolinecarboxylic acid, reference compound] | 0.1 (≈ 0.224 µM) | –
2 | 0.5 (≈ 1.2 µM) | 0.015 (≈ 0.0361 µM) | 0.5 (≈ 1.2 µM) | 0.015 (≈ 0.0361 µM) | 0.06 (≈ 0.144 µM) | – | – | – | – | – | CC1C=CC(N)C2CN(c3c(F)cc4c(=O)c(C(=O)O)cn(C5CC5)c4c3F)CC12 (centres unmarked) [Ref. 1, 7(4-amino-7-methyl-1,3,3a,4,7,7a-hexahydro-isoindol-2-y1)-1-cyclopropyl-6 8-difluoro-1,4-dihydro-4-oxo-3-quinolinecarboxylic acid, reference compound] | – | –
3 | 0.125 (≈ 0.289 µM) | 0.015 (≈ 0.0347 µM) | 0.5 (≈ 1.16 µM) | 0.015 (≈ 0.0347 µM) | 0.015 (≈ 0.0347 µM) | – | – | – | – | – | CC1C=CC(N)C2CN(c3c(F)cc4c(=O)c(C(=O)O)cn(C5CC5)c4c3Cl)CC12 (centres unmarked) [Ref. 3, 7(4-amino-7-methyl-1,3,3a,4,7,7a-hexahydro-isoindol-2-yl)-8-chloro-1-cycl propyl-6-fluoro-1,4-dihydro-4-oxo-3-quinolinecarboxylic acid, reference compound] | – | –
4 | 0.25 (≈ 0.585 µM) | 0.015 (≈ 0.0351 µM) | 1 (≈ 2.34 µM) | 0.015 (≈ 0.0351 µM) | 0.015 (≈ 0.0351 µM) | – | – | – | – | – | COc1c(N2CC3C(C)C=CC(N)C3C2)c(F)cc2c(=O)c(C(=O)O)cn(C3CC3)c12 (centres unmarked) [Ref. 2, 7(4-amino-7-methyl-1,3,3a,4,7,7a-hexahydro-isoindol-2-y1)-1-cyclopropyl-6 fluoro-1,4-dihydro-8-methoxy-4-oxo-3-quinolinecarboxylic acid, reference compound] | – | –

Further lines, the molecule ahead of its results:

Row | Structure (SMILES) | MIC (Bac. fragilis ES 25; [2]) [µg/mL] | MIC (E. coli Neumann; [3]) [µg/mL] | MIC (Ps. aeruginosa Walter; [4]) [µg/mL] | MIC (Staph. aureus 133; [5]) [µg/mL] | MIC (Staph. aureus ICB 25701; [6]) [µg/mL] | MIC (Staph. aureus ICB 25701; 37° C.) [µg/mL] | MIC (Bac. fragilis ES 25; 37° C.) [µg/mL] | MIC (E. coli Neumann) [µg/mL] | MIC (Ps. aeruginosa Walter) [µg/mL] | MIC (Staph. aureus 133) [µg/mL] | IC50 [1] [µg/mL] | ID50 (concentration at which DNA synthesis in CHO-KI cells is inhibited by 50%) (CHO-KI cells) [µg/mL]
5 | NC12C=CC(CC1)C1CN(c3cc4c(cc3F)c(=O)c(C(=O)O)cn4C3CC3)CC12 (centres unmarked) [Example 1, 7-(1-amino-4-aza-tricyclo[5.2.2.0^2,6]undec-8-en-4-yl)-1-cyclopropyl-6-fluoro-1,4-dihydro-4-oxo-3-quinolinecarboxylic acid] | 16 (≈ 39.1 µM) | 0.125 (≈ 0.305 µM) | 8 (≈ 19.5 µM) | 0.062 (≈ 0.151 µM) | 8 (≈ 19.5 µM) | – | – | – | – | – | 24 (≈ 58.6 µM) | –
6 | NC12C=CC(CC1)C1CN(c3c(F)cc4c(=O)c(C(=O)O)cn(C5CC5)c4c3F)CC12 (centres unmarked) [Example 2] | 0.5 (≈ 1.17 µM) | 0.015 (≈ 0.0351 µM) | 0.5 (≈ 1.17 µM) | 0.015 (≈ 0.0351 µM) | 0.062 (≈ 0.145 µM) | – | – | – | – | – | 1 (≈ 2.34 µM) | –
7 | COc1c(N2CC3C4C=CC(N)(CC4)C3C2)c(F)cc2c(=O)c(C(=O)O)cn(C3CC3)c12 (centres unmarked) [Example 5, 7-(1-amino-4-aza-tricyclo[5.2.2.0^2,6]undec-8-en-4-yl)-1-cyclopropyl-6-fluoro-1,4-dihydro-8-methoxy-4-oxo-3-quinolinecarboxylic acid] | 0.125 (≈ 0.284 µM) | 0.015 (≈ 0.0341 µM) | 1 (≈ 2.28 µM) | 0.015 (≈ 0.0341 µM) | 0.031 (≈ 0.0705 µM) | – | – | – | – | – | 8 (≈ 18.2 µM) | –
8 | NC12C=CC(CC1)C1CN(c3c(F)cc4c(=O)c(C(=O)O)cn(C5CC5)c4c3C(F)(F)F)CC12 (centres unmarked) [Example 6, 7-(1-Amino-4-aza-tricyclo[5.2.2.0^2,6]undec-8-en-4-yl)-1-cyclopropyl-6-fluoro-1,4-dihydro-4-oxo-8-trifluoromethyl-3-quinolinecarboxylic acid] | 0.25 (≈ 0.524 µM) | 0.06 (≈ 0.126 µM) | 4 (≈ 8.38 µM) | 0.015 (≈ 0.0314 µM) | 0.125 (≈ 0.262 µM) | – | – | – | – | – | 10 (≈ 20.9 µM) | –
9 | CN1COc2c(N3CC4C5CCC(N)(CC5)C4C3)c(F)c(N)c3c(=O)c(C(=O)O)cn1c23 (centres unmarked) [Example 22, 8-amino-10-(1-amino-4-azatricyclo[5.2.2.0^2,6]undecan-4-yl)-9-fluoro-3-methyl-7-oxo-2,3-dihydro-7H-pyrido[1,2,3-d,e][1,3,4]benzoxadiazine-6-carboxylic acid] | – | – | – | – | – | 2 (≈ 4.51 µM) | 4 (≈ 9.02 µM) | 0.125 (≈ 0.282 µM) | 8 (≈ 18 µM) | 0.031 (≈ 0.0699 µM) | – | 8 (≈ 18 µM)
10 | COc1c(N2CC3C4CCC(N)(CC4)C3C2)c(F)cc2c(=O)c(C(=O)O)cn(C3CC3)c12 (centres unmarked) [Example 20, 7-(1-amino-4-azatricyclo[5.2.2.0^2,6]undec-4-yl)-1-cyclopropyl-6-fluoro-1,4-dihydro-8-methoxy-4-oxo-3-quinolinecarboxylic acid] | 1 (≈ 2.26 µM) | 0.03 (≈ 0.0679 µM) | 2 (≈ 4.53 µM) | 0.015 (≈ 0.034 µM) | 0.125 (≈ 0.283 µM) | – | – | – | – | – | 16 (≈ 36.2 µM) | –
11 | NC12CCC(CC1)C1CN(c3c(F)cc4c(=O)c(C(=O)O)cn(C5CC5)c4c3C(F)(F)F)CC12 (centres unmarked) [Example 21, 7-(1-amino-4-azatricyclo[5.2.2.0^2,6]undec-4-yl)-1-cyclopropyl-6-fluoro-1,4-dihydro-4-oxo-8-trifluoromethyl-3-quinolinecarboxylic acid] | 0.125 (≈ 0.261 µM) | 0.015 (≈ 0.0313 µM) | 4 (≈ 8.34 µM) | 0.015 (≈ 0.0313 µM) | 0.125 (≈ 0.261 µM) | – | – | – | – | – | 10 (≈ 20.9 µM) | –
12 | NC12CCC(CC1)C1CN(c3c(F)cc4c(=O)c(C(=O)O)cn(C5CC5)c4c3Cl)CC12 (centres unmarked) [Example 19, 7-(1-amino-4-azatricyclo-[5.2.2.0^2,6]undec-4-yl)-8-chloro-1-cyclopropyl-6-fluoro-1,4-dihydro-4-oxo-3-quinolinecarboxylic acid] | 0.125 (≈ 0.28 µM) | 0.03 (≈ 0.0673 µM) | 1 (≈ 2.24 µM) | 0.015 (≈ 0.0336 µM) | 0.06 (≈ 0.135 µM) | – | – | – | – | – | 4 (≈ 8.97 µM) | –
13 | NC12C=CC(CC1)C1CN(c3c(F)cc4c(=O)c(C(=O)O)cn(C5CC5)c4c3Cl)CC12 (centres unmarked) [Example 3, 7-(1-Amino-4-aza-tricyclo[5.2.2.0^2,6]undec-8-en-4-yl)-8-chloro-1-cyclopropyl-6-fluoro-1,4-dihydro-4-oxo-3-quinoline-carboxylic acid] | 0.125 (≈ 0.282 µM) | 0.015 (≈ 0.0338 µM) | 0.5 (≈ 1.13 µM) | 0.015 (≈ 0.0338 µM) | 0.031 (≈ 0.0698 µM) | – | – | – | – | – | 4 (≈ 9.01 µM) | –
14 | NC12CCC(CC1)C1CN(c3c(F)cc4c(=O)c(C(=O)O)cn(C5CC5)c4c3F)CC12 (centres unmarked) [Example 18, 7-(1-amino-4-azatricyclo[5.2.2.0^2,6]undec-4-yl)-1-cyclopropyl-6,8-difluoro-1,4-dihydro-4-oxo-3-quinolinecarboxylic acid] | 1 (≈ 2.33 µM) | 0.03 (≈ 0.0699 µM) | 2 (≈ 4.66 µM) | 0.015 (≈ 0.0349 µM) | 0.25 (≈ 0.582 µM) | – | – | – | – | – | 1 (≈ 2.33 µM) | –
